These results are taken from patent US20090202499A1, “Human Telomerase Reverse Transcriptase Peptides” (priority 2006, published 2009).

In assay [1] the target is B*0801 (Homo sapiens, UniProt P01889, A93T/A95T/D138N/E176V/E187T/K202T/Q94N/R180D/S35A/V36M/Y33D/Y91F). In words: biochemical.
In assay [2] the target is B*3501 (Homo sapiens, UniProt P01889, A329T/A93T/A95T/C349S/D201E/D98Y/E176V/E187L/E204Q/E69T/I218V/K202T/L119I/Q94N/R155S/R180L/S121R/S35A/S48A/T118I/V127L/V306I/V36M/Y140S/Y91F). The assay can be described thus: HLA-B7 supertype binding assay. As for the experimental part:
(§1) Supertype analysis. Quantitative assays to measure the binding affinity of peptides to purified HLA B7-supertype molecules (B*0702, B*3501, B*5101, B*5301, B*5401) and B*0801 were based on the inhibition of binding of a radiolabeled standard peptide, and were performed as previously described (22, 35). Briefly, 1-10 nM of radiolabeled peptide was co-incubated at room temperature with 1 microM to 1 nM of purified MHC in the presence of 1-3 μM human beta2-microglobulin (Scripps Laboratories, San Diego, Calif.) and a cocktail of protease inhibitors. After a two-day incubation, binding of the radiolabeled peptide to the corresponding MHC class I molecule was determined by capturing MHC/peptide complexes on Greiner Lumitrac 600 microplates (Greiner Bio-one, Longwood, Fla.) coated with the W6/32 antibody, and measuring bound counts per minute (cpm) using the TopCount microscintillation counter (Packard Instrument Co.). […] Under the conditions utilized, where [label]<[MHC] and IC50≧[MHC], the measured IC50 values are reasonable approximations of the true Kd values.
(§2) HLA molecules are highly polymorphic posing problems to the identification of peptides, which could be used to cover the totality of the human population. However, HLA alleles can be clustered into a relatively small number of groups termed supertypes (21). The HLA-B7 supertype includes ten alleles (22). Here, we decided to test the selected hTRT peptides for their ability to bind five out of ten members of the HLA-B7 supertype (B*3501, B*5101, B*5301, B*5401) and B*0801. The B*0801 allele shares binding features with B*0702, although is not officially part of the HLA-B7 supertype. This analysis had the purpose to further narrow the selection of putative HLA-B7 immunogens based on supertype binding (Table V).

Assay [3] deals with B*5101 (Homo sapiens, UniProt P01889, A329T/A93T/A95T/C349S/D138N/D201E/D98Y/E187L/E204Q/E69T/G107R/I218V/K202T/L105A/L119W/N104I/Q94N/R106L/R155S/R180L/S101N/S121T/S35A/S48A/V306I/V36M/Y195H/Y91F). The assay can be described thus: HLA-B7 supertype binding assay. As for the experimental part:
as §1, §2

Assay [4] concerns the target B*5301 (Homo sapiens, UniProt P01889, A329T/A93T/A95T/C349S/D201E/D98Y/E176V/E187L/E204Q/E69T/G107R/I218V/K202T/L105A/L119I/N104I/Q94N/R106L/R155S/R180L/S101N/S121R/S35A/S48A/T118I/V127L/V306I/V36M/Y140S/Y91F). The assay can be described thus: HLA-B7 supertype binding assay. As for the experimental part: as §1, §2
For assay [5], the target named is B*5401 (Homo sapiens, UniProt P01889, A329T/C349S/D138N/D201E/E176V/E187T/E204Q/E69G/I76V/K202T/L119W/R155S/R180L/S121T/S35A/S48A/V127L/V306I/V36M/Y140L). In words: HLA-B7 supertype binding assay. As to the method:
as §1, §2

The subject of assay [6] is RMA-B7 cells pulsed with the homologous hTRT peptide. In words: peptide immunization of HLA-B7 Tg mice, 51Cr-release assay. It is filed as in vivo. The following applies: 100 micrograms peptide + HBV helper peptide in IFA, s.c. As for the experimental part:
FIG. 1. […] HLA-B7 Tg mice were vaccinated with 100 micrograms of individual hTRT peptide together with 120 micrograms of HBV helper peptide in IFA. Ten days after immunization, spleen lymphocytes were restimulated in vitro with peptide and fresh, irradiated syngeneic APC. Restimulations were performed on a weekly basis. A standard 4 hour ^51Cr-release assay was performed on day 5 after in vitro restimulation, using RMA-B7 cells pulsed with the homologous hTRT peptide as targets and an E:T ratio of 25:1. Results are expressed as the mean specific lysis plus or minus standard deviation of responder mice only, whose number is indicated in each panel. Tests were run in duplicate.
In vivo immunization procedures. Peptide immunization. HLA B7 transgenic mice (28) were injected s.c. at the base of the tail with 100 micro-grams of hTRT peptides along with 120 micro-grams of I-A^b MHC Class II helper peptide 128-140 of the hepatitis B virus core protein in incomplete Freunds' adjuvant as described previously (12). Long-term CTL lines were maintained in culture by weekly restimulation with irradiated, peptide-pulsed syngeneic spleen cells in RPMI-1640 medium containing 10% heat inactivated fetal bovine serum, 2 mM glutamine, 5×10^−5 M 2-Mercaptoethanol, 50 micro-grams/ml streptomycin, and 50 micro-grams/ml penicillin (complete medium) and supplemented with 40 IU/ml of recombinant human IL-2.
CTL assays. Both murine and human CTL were detected by the ^51Cr release assay performed as previously described (14). Briefly, HLA-B7^+ antigen presenting cells (RMA-B7 or T2-B7 cells) were labeled for 1 hr with 100 micro-Ci of Na2^51CrO4 (Perkin Elmer). Washed cells (5×10^3 per well) were mixed in 96-well plates in 100 micro-liters/well with each peptide (at 10 micro-grams/ml or lower concentration) and 100 micro-liters of the CTL effector cells (at various E:T ratio) in RPMI medium. The plates were incubated for 4-5 hrs at 37° C. (5% CO2). The supernatants were harvested and counted on a Wallac 1470 Wizard Gamma counter. The percent lysis was calculated as 100 (cpmexp−cpmspont)/(cpmmax−cpmspont).
In order to assign immunogenicity to each of the peptides and correlate this property with the binding characteristics and the scores of the predictive algorithms, we immunized HLA-B7 Tg mice (28). Ten to eleven days after immunization mice were sacrificed, the spleen harvested and splenocytes put in culture with LPS/Dextran activated APC, and tested in a 4 hour ^51Cr-release assay. As shown, only five out of seven peptides yielded a meaningful, specific CTL response even after a third cycle of in vitro restimulation (FIG. 1). All immunogenic peptides induced a response from the first in vitro restimulation and this response increased upon subsequent rounds of antigen restimulation. As noted the lysis of peptide-pulsed RMA-B7 target cells increased at each round of in vitro restimulation. No lysis occurred on RMA-B7 cells not pulsed with peptide. Thus, the in vivo results together with the actual measure of the avidity of HLA-B7 binding avidity distinguished two groups of 9mer hTRT peptides.

The target of assay [7] is B*0702 (Homo sapiens, UniProt P01889). The assay can be described thus: competition solid-phase radioimmunoassay on purified HLA molecule. It is filed as binding. As for the experimental part:
as §1
Next, we assessed the actual binding avidity for HLA-B7 (HLA-B*0702). Two independent assays were used: binding stabilization assay on T2-B7 cells by flow cytometry (12) and a competitive solid-phase radioimmunoassay on immobilized purified HLA-B7 molecule (35).

Entries after “also recorded” stand apart in the source; their conditions may differ. Where two headings read alike, the source gives them in different places.

Turning to `CSCC[C@H](NC(=O)[C@H](CC(N)=O)NC(=O)[C@H](CCCNC(=N)N)NC(=O)CNC(=O)[C@H](C)N)C(=O)N[C@@H](CCCNC(=N)N)C(=O)N[C@@H](CCCNC(=N)N)C(=O)N[C@@H](CCCCN)C(=O)N[C@@H](CC(C)C)C(=O)O` [p966], the IC50 in assay [1] is more than 50 µM; in assay [2], more than 50 µM; in assay [3], more than 50 µM; in assay [4], more than 50 µM; in assay [5], 34.1 µM; in assay [7] it was more than 50000 nM. In assay [7] (read-out: HLA class I binding capacity (IC50 nM) B*0702, Table V, purified MHC, radiolabeled standard peptide), the IC50 was more than 50000 nM. Also, the “immunogenicity in vivo, CTL response after peptide immunization (in words)” value in assay [6] is reported as “non-immunogenic; also recorded: poor immunogenicity; also recorded: repeated negative results”.

One may read the IC50 as the concentration needed to halve the response being measured.
